Data taken from patent US11793770B2, “7-OH-cannabidiol (7-OH-CBD) and/or 7-OH-cannabidivarin (7-OH-CBDV) for use in the treatment of epilepsy” (GW Research Limited, priority 2014, dated 2023).
Marks after values point to notes of the source that are not given here.

Assays:
PTZ-induced seizures = assay: PTZ model of generalised (acute) seizures; assay type: in vivo, rat; settings: for Anti-convulsant action in the PTZ model of acute seizure: 7-OH-CBDV 200 mg/kg, 7-OH-CBD 100 mg/kg IP; for Mortality / Latency to seizure onset / Maximum observed seizure severity (median): CBD and 7-OH CBD 100 mg/kg; for Mortality: FIG. 1B; for Latency to seizure onset: FIG. 1D; for Potency compared with parent cannabinoid: metabolite vs parent (CBD, CBDV) at the same dose; for Maximum observed seizure severity (median): IP 30 min before PTZ 70 or 80 mg/kg IP, score scale 0-6, FIG. 1A
Description: Male Wistar rats (P24-29; 75-110 g) were used to assess the effects of the cannabinoids listed above on the PTZ model of generalised seizures. Animals were habituated to the test environment, cages, injection protocol and handling prior to experimentation. Animals were housed in a room at 21° C. on a 12 hour light: dark cycle (lights on 0900) in 50% humidity, with free access to food and water.
Five 6 L Perspex (RTM) tanks with lids were placed on a single bench with dividers between them. Closed-circuit television (CCTV) cameras were mounted onto the dividers to observe rat behaviour. Sony Topica CCD cameras (Bluecherry, USA) were linked via BNC cables to a low-noise PC via Brooktree digital capture cards (Bluecherry, USA). Zoneminder (http://www.zoneminder.com) software was used to monitor rats, start and end recordings and manage video files. In-house Linux (RTM) scripts were used to encode video files into a suitable format for further offline analysis
Animals were filmed for half an hour after last sign of seizure, and then returned to their cage.
Animals were observed during experimental procedures, but all analysis was performed offline on recorded video files using The Observer behavioural analysis software (Noldus, Netherlands). A seizure severity scoring system was used to determine the levels of seizure experienced by subjects (Table 1). All signs of seizure were detailed for all animals.
The latency (in seconds) from injection of PTZ to first myoclonic jerk (FMJ; score of 1), and to the animal attaining “forelimb clonus with tonic component and body twist” (score of 3.5) were recorded. […] Data are presented as the mean±S.E.M. within an experimental group.
This is given as the median value for each experimental group based on the scoring scale above.
The percentage of animals within an experimental group that died as a result of PTZ-induced seizures. A score of 6 (death) automatically denotes that the animal also experienced tonic-clonic seizures.
This is given as the mean±S.E.M. for each experimental group.
Differences in latencies and durations were assessed by one-way analysis of variance (ANOVA) with post-hoc Tukey's test. P≤0.05 was considered significant.

[1] = WO 01/95899; cited from earlier work
[2] = test system: Maximal electroshock seizures (MES); assay: Maximal electroshock (MES) model of seizure; assay type: in vivo, mouse
Description: The vehicle used in this study was 2:1:17 (ethanol:Cremophor:0.9% w/v NaCl). […] This was made to a solution at the highest concentration; then dissolved in ethanol before combination with Cremophor and 0.9% NaCl in the proportion described above. The 7-OH-CBDV was administered intraperitoneally at a volume of 10 ml/kg body weight.
Animal Species/Strain: Mouse/ICR, Microbiological grade: SPF, Inc. Sex: male, Age (at time of testing): 5-7 weeks old, Number of animals: about 5 animals per group. Temperature: 23±2° C., Humidity: 60±10%, Light conditions: 7 AM to 7 PM for the light period, 7 PM to 7 AM for the dark period. Chow and water: Free access to CRF-1 (Oriental Yeast Co, Ltd) and tap water.
One day before each experiment, mice were weighed and randomized into several groups in each test. On the morning of the experiment day, body weight was measured in order to calculate the administration volume of each animal. Vehicle, 7-OH-CBDV or CBDV was interperitoneally administered 30 minutes before electric stimuli. […]
All statistical analyses were performed using SAS Software for Windows, Release 9.1. The difference of the number (hindlimb extension or deaths) in each group was assessed using two-tailed Fisher's exact test. […]

[3] = test system: seizures in epileptic patients; settings: cited from earlier work
[4] = test system: seizures after pro-convulsant drugs or an electric current; settings: mice, after pro-convulsant drugs or an electric current (Consroe et al., 1982); cited from earlier work
[5] = IP 30 min before PTZ, CBDV and 7-OH CBDV 200 mg/kg, n=11
[6] = CBDV and 7-OH CBDV 200 mg/kg, n=11

| SMILES | Anti-convulsant action in the PTZ model of acute seizure (PTZ-induced seizures) | Mortality (PTZ-induced seizures; [5]) | Latency to seizure onset (PTZ-induced seizures; [5]) | Latency to seizure onset (PTZ-induced seizures; IP 30 min before PTZ, CBDV and 7-OH CBDV 200 mg/kg, n=11, listed as 7-OH CBD) | Potency compared with parent cannabinoid (PTZ-induced seizures) | Efficacy in a model of inflammation [1] | Maximum observed seizure severity (median) (PTZ-induced seizures; [6]) | Anti-convulsant effects in the MES model ([2]; 150 and 200 mg/kg i.p.) | Patients becoming seizure free ([3]; 200 mg/day pure CBD, four adult patients (Mechoulam and Carlini, 1978)) | Control of seizures ([3]; 200 mg/day pure CBD, open label, twelve institutionalized adult patients (Ames and Cridland, 1986)) | Number of patients with marked reduction of seizures ([3]; eight adult patients with generalized epilepsy (Cunha et al., 1980)) | Epileptic patients describing an improvement in their condition ([3]; eight epileptic patients (Carlini et al., 1981)) | Prevention of seizures [4] | Incidence of tonic clonic seizures (PTZ-induced seizures; IP 30 min before PTZ, CBDV and 7-OH CBDV 200 mg/kg, n=11, FIG. 1C) | Percentage decrease in tonic clonic convulsions compared with vehicle ([2]; 200 mg/kg i.p., 30 minutes before electric stimuli, ICR mice) |
| --- | --- | --- | --- | --- | --- | --- | --- | --- | --- | --- | --- | --- | --- | --- | --- |
| C=C(C)[C@@H]1CCC(CO)=C[C@H]1c1c(O)cc(CCCCC)cc1O [7-OH-CBD, 7-hydroxy-cannabidiol] | show anti-convulsant action | reduction in mortality | significantly reduce the latency to onset of seizures | significantly reduced the latency to seizure onset | more potent than their parent cannabinoids | found to be effective |  |  |  |  |  |  |  |  |  |
| C=C(C)[C@@H]1CCC(CO)=C[C@H]1c1c(O)cc(CCC)cc1O [7-OH-CBDV, 7-hydroxy-cannabidivarin] | show anti-convulsant action | significant effect on mortality |  |  | more potent than their parent cannabinoids |  | 3 | anti-convulsant effects |  |  |  |  |  |  |  |
| C=C(C)[C@@H]1CCC(C)=C[C@H]1c1c(O)cc(CCCCC)cc1O [CBD, Cannabidiol] |  | reduction in mortality |  |  |  |  |  |  | two of the four patients became seizure free | ineffective in controlling seizures | 4 | Seven out of the eight | able to prevent seizures |  |  |
| C=C(C)[C@@H]1CCC(C)=C[C@H]1c1c(O)cc(CCC)cc1O [CBDV, Cannabidivarin] |  | significant effect on mortality |  |  |  |  | significantly reduced seizure severity |  |  |  |  |  |  | significantly reduced | 82% *** |
